Each block holds one compound with its values, some of them ahead of it.
Experiments:
[1] = Photostability Example: aqueous photolysis under xenon arc lamp simulating natural sunlight for 24 hours, percent remaining relative to dark controls; assay type: physicochemical; conditions: 0.670 μg/mL in 80/20 10 mM pH 7 phosphate buffer/acetonitrile, xenon arc lamp 24 hours
Protocol: Aqueous photolysis data is a simple proxy for photostability under field conditions. The following aqueous photolysis data supports the enhanced photostability of the tolyl fungicides of the present invention.
Test compound (0.670 μg/mL) dissolved in 80/20 10 mM pH 7 phosphate buffer/acetonitrile is added to 2-mL borosilicate glass HPLC vials. The addition of 20% acetonitrile is intended to ensure solubility of compounds with low aqueous solubility. Samples are exposed to light in an Atlas Ci65 Burner photolysis chamber fitted with a xenon arc lamp (6500 W) to simulate natural sunlight for 24 hours and compared with samples wrapped in aluminum foil to protect them from light under the same conditions. The 24-hour irradiation is equivalent to ˜2.6 days of average Delaware summer sunlight exposure. Samples are analyzed by HPLC and results are reported as percent remaining based on peak area relative to the dark controls.

[2] = system: Erysiphe graminis f. sp. tritici; assay: Test A: wheat powdery mildew, preventive spray on wheat seedlings, visual disease rating; assay type: in vivo; conditions: Blumeria graminis, 192 h, 100 = 100% disease control
Procedure, shortened: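 Preventive test: seedlings inoculated with Erysiphe spores one day after run-off spraying at 200 ppm (or 40/50 ppm) in acetone/water plus surfactant. Kept 8 days at 20° C; visual rating as % disease control versus untreated (100 = full control).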

[3] = system: Puccinia recondita f sp. tritici; assay: Test B: wheat leaf rust, preventive spray on wheat seedlings, visual disease rating; assay type: in vivo; conditions: 192 h, 100 = 100% disease control
Procedure, shortened: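 Preventive spray to run-off on seedlings, one day before spore inoculation; 24 h in saturated atmosphere at 20° C, then 7 days in a 20° C growth chamber before visual rating (100 = full control, 0 = none, relative to controls). Standard rate 200 ppm, equal to 800 g/ha, some at 40 or 50 ppm; compounds in acetone/water with 250 ppm surfactant.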

Septoria tritici = assay: Test C: wheat leaf blotch, preventive spray on wheat seedlings, visual disease rating; assay type: in vivo; conditions: Zymoseptoria tritici, 504 h, 100 = 100% disease control
Procedure, shortened: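 Preventive run-off spray on seedlings at 200 ppm (equal to 800 g/ha), some at 40 or 50 ppm, in acetone/water 50/50 plus 250 ppm Trem® 014. Spore inoculation one day later; 24° C. saturated for 48 h, 20° C. chamber 19 days. Disease scored visually as % control relative to controls.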

Septoria nodorum = assay: Test D: wheat glume blotch, preventive spray on wheat seedlings, visual disease rating; assay type: in vivo; conditions: Parastagonospora nodorum, 216 h, 100 = 100% disease control
Procedure, shortened: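 Disease control (0 = none, 100 = full, relative to controls) was scored visually on wheat seedlings 7 days after a 48 h saturated-humidity incubation at 20° C following Septoria nodorum inoculation. Inoculation came one day after a run-off spray at 200 ppm (some 40 or 50 ppm) in acetone/water plus surfactant.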

Botrytis cinerea = assay: Test E: tomato botrytis, preventive spray on tomato seedlings, visual disease rating; assay type: in vivo; conditions: Botrytis cinerea, 120 h, 100 = 100% disease control
Procedure, shortened: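 Preventive test: seedlings inoculated with Botrytis cinerea spore suspension one day after run-off spraying (200 ppm ≈ 800 g/ha; some 40 or 50 ppm) in acetone/water with 250 ppm surfactant. Incubation 48 h at 20°C saturated humidity, then 3 days at 27°C; disease control rated visually (0–100%) relative to controls.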

Structure (SMILES): COC(=O)NCc1cc(-n2ccc(-c3ccc(OC)cc3C)n2)ccc1F [10PP]
% Cmpd Remaining [1]: 64%

Structure (SMILES): COC(=O)NCc1cc(-n2ccc(-c3ccc(OC)cc3C)n2)ccc1Cl [10P]
% Cmpd Remaining [1]: 0%

Structure (SMILES): COC(=O)NCc1cc(-n2ncc(-c3ccc(OC)cc3OC)n2)ccc1Cl [17P]
% Cmpd Remaining [1]: 0%

Structure (SMILES): COC(=O)NCc1cc(-n2ccc(-c3ccc(Cl)cc3OC)n2)ccc1C [Compound 11, methyl N-[[5-[3-(4-chloro-2-methoxyphenyl)-1H-pyrazol-1-yl]-2-methylphenyl]-methyl]carbamate]
pest or weed control at 200 ppm [2]: 100%
pest or weed control at 200 ppm [3]: 100%
pest or weed control at 200 ppm (Septoria tritici): 100%
pest or weed control at 200 ppm (Septoria nodorum): 100%
pest or weed control at 200 ppm (Botrytis cinerea): 56%
melting point: 126 to 127 °C

Structure (SMILES): COC(=O)NCc1cc(-c2ccn(-c3ccc(OC)cc3C)n2)ccc1C [Compound 18, methyl N-[[5-[1-(4-methoxy-2-methylphenyl)-1H-pyrazol-3-yl]-2-methylphenyl]methyl]carbamate]
% Cmpd Remaining [1]: 98%
pest or weed control at 200 ppm [2]: 100%
pest or weed control at 200 ppm [3]: 100%
pest or weed control at 200 ppm (Septoria tritici): 100%
pest or weed control at 200 ppm (Botrytis cinerea): 44%
melting point: 117 to 120 °C

Structure (SMILES): COC(=O)NCc1cc(-n2ccc(-c3ccc(OC)cc3OC)n2)ccc1C [Compound 23, methyl N-[[5-[3-(2,4-dimethoxyphenyl)-1H-pyrazol-1-yl]-2-methylphenyl]methyl]carbamate]
% Cmpd Remaining [1]: 54%
pest or weed control at 200 ppm [2]: 100%
pest or weed control at 200 ppm [3]: 100%
pest or weed control at 200 ppm (Septoria tritici): 100%
pest or weed control at 200 ppm (Septoria nodorum): 100%
pest or weed control at 200 ppm (Botrytis cinerea): 66%

Structure (SMILES): COC(=O)NCc1cc(-n2ccc(-c3ccc(Cl)cc3Cl)n2)ccc1C [Compound 31, methyl N-[[5-[3-(2,4-dichlorophenyl)-1H-pyrazol-1-yl]-2-methylphenyl]-methyl]carbamate]
pest or weed control at 200 ppm [2]: 100%
pest or weed control at 200 ppm [3]: 100%
pest or weed control at 200 ppm (Septoria tritici): 100%
pest or weed control at 200 ppm (Septoria nodorum): 100%
pest or weed control at 200 ppm (Botrytis cinerea): 16%
melting point: 101 to 103 °C

Structure (SMILES): COC(=O)NCc1cc(-n2ccc(-c3ccc(C)cc3C)n2)ccc1C [Compound 38, methyl N-[[5-[3-(2,4-dimethylphenyl)-1H-pyrazol-1-yl]-2-methylphenyl]-methyl]carbamate]
pest or weed control at 40 ppm [2]: 100%
pest or weed control at 40 ppm [3]: 100%
pest or weed control at 40 ppm (Septoria tritici): 100%
pest or weed control at 40 ppm (Septoria nodorum): 100%
pest or weed control at 40 ppm (Botrytis cinerea): 98%

Structure (SMILES): COC(=O)NCc1cc(-c2ncn(-c3ccc(OC)cc3OC)n2)ccc1C [Compound 54]
pest or weed control at 40 ppm [2]: 99%
pest or weed control at 40 ppm [3]: 100%
pest or weed control at 40 ppm (Septoria tritici): 49%
pest or weed control at 40 ppm (Septoria nodorum): 100%
pest or weed control at 40 ppm (Botrytis cinerea): 49%
melting point: 174 to 177 °C

Next, values leading:

% Cmpd Remaining [1]: 0%
Structure (SMILES): COC(=O)NCc1cc(-c2ccn(-c3ccc(OC)cc3C)n2)ccc1Cl [18P]

% Cmpd Remaining [1]: 5%
Structure (SMILES): COC(=O)NCc1cc(-n2ccc(-c3ccc(OC)cc3OC)n2)ccc1F [23PP]

% Cmpd Remaining [1]: 0%
Structure (SMILES): COC(=O)NCc1cc(-n2ccc(-c3ccc(OC)cc3OC)n2)ccc1Cl [23P]

% Cmpd Remaining [1]: 0%
Structure (SMILES): COC(=O)NCc1cc(-c2ccn(-c3ccc(OC)cc3OC)n2)ccc1Cl [24P]
